Where two headings read alike, the source gives them in different places.
Legend:
[1] = biological target: full-length wt-BTK enzyme (Homo sapiens (Human), UniProt Q06187); assay: Biochemical kinase assay wt-BTK (IMAP)
Protocol: Biochemical kinase assay wt-BTK To determine the inhibitory activity of compounds on wt-BTK enzyme activity, the IMAP® assay (Molecular Devices) was used. […] After pre-incubation of 1 hour in the dark at room temperature, fluorescein-labeled MBP-derived substrate peptide (Molecular Devices, cat. no. RP 7123) was added, followed by ATP to start the reaction. Final enzyme concentration was 1.2 nM, final substrate concentration 50 nM, and final ATP concentration was 4 μM. The reaction was allowed to proceed for 2 hours at room temperature in the dark. The reaction was stopped by quenching with IMAP progressive binding solution according to the protocol of the manufacturer (Molecular Devices). Fluorescein polarization was measured on an Envision multimode reader (Perkin Elmer, Waltham, MA, U.S.A.). […] Results of the wt-BTK binding affinity are shown in Table 1 below. • IC50 wt-BTK: […]

[2] = tested on: wt-REC-1 mantle cell lymphoma cells; assay: Cell proliferation assay wt-REC-1 (ATPlite, 72 hours); assay type: cell-based; conditions: read-out: IC50 wt-REC-1
Protocol: Results of the BTK […] binding affinity are shown in Table 1 below. • IC50 BTK […]: […] wt-REC-1 mantle cell lymphoma cells were purchased from American Type Culture Collection via Synthego Corporation (cat. no. CRL-3004, ATCC). […] Luminescence was recorded on an Envision multimode reader. The cell signal at the start of incubation was recorded separately in order to distinguish between cell population growth and cell death. In addition, maximum growth was determined by incubation of a duplicate without compound in the presence of 0.3% DMSO. Percentage growth was used as the main y-axis signal. IC50s were fitted by non-linear regression using IDBS XLfitTM5 using a 4-parameter logistic curve, yielding a maximum signal, minimum signal, hill-parameter and IC50. Results of the wt-REC-1 proliferation are shown in Table 1 below. • IC50 wt-REC-1: […]

[3] = biological target: full-length BTK C481S enzyme (Homo sapiens (Human), UniProt Q06187, C481S); assay: Biochemical kinase assay BTK C481S (IMAP)
Chain of full-length BTK C481S enzyme (Q06187 whole entry C481S): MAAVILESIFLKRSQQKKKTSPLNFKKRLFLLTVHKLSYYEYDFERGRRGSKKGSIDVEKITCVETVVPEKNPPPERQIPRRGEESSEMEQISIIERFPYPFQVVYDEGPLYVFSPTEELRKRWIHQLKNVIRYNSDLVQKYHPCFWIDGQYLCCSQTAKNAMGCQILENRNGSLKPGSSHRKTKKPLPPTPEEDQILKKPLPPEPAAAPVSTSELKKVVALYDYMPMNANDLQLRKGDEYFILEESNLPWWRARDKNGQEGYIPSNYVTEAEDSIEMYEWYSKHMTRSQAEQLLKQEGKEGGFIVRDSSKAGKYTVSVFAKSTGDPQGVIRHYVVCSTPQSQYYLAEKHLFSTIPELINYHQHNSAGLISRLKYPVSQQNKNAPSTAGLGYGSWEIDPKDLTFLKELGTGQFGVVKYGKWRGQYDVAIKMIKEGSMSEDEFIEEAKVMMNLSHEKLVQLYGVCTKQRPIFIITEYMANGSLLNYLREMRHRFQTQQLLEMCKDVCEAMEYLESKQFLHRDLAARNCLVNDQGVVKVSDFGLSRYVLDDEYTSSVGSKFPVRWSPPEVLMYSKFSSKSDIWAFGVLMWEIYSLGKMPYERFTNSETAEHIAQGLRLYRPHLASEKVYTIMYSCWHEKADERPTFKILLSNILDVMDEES
Protocol: Biochemical kinase assay BTK […] To determine the inhibitory activity of compounds on BTK C481S enzyme activity, the IMAP® assay (Molecular Devices) was used. […] After pre-incubation of 1 hour in the dark at room temperature, fluorescein-labeled MBP-derived substrate peptide (Molecular Devices, cat. no. RP 7123) was added, followed by ATP to start the reaction. Final enzyme concentration was 1.2 nM final substrate concentration 50 nM, and final ATP concentration was 7 μM. The reaction was allowed to proceed for 2 hours at room temperature in the dark. The reaction was stopped by quenching with IMAP progressive binding solution according to the protocol of the manufacturer (Molecular Devices). Fluorescein polarization was measured on an Envision multimode reader (Perkin Elmer, Waltham, MA, U.S.A.). IC50 were calculated using XLfitTM5 software (ID Business Solutions, Ltd., Surrey, U.K.). Results of the BTK […] binding affinity are shown in Table 1 below. • IC50 BTK […]: […]

REC-1 T474I cell lines = assay: Cell proliferation assay REC-1 BTK T474I knock-in cells (ATPlite, 72 hours); assay type: cell-based; conditions: 72 hours, read-out: IC50 REC-1 T474I
Protocol: Cell proliferation assay Generation of BTK […] knock-in cell lines wt-REC-1 cell lines expressing mutant BTK were created at Synthego Corporation. Cell lines expressing BTK […] was generated via CRISPR/Cas9. Monoclonal REC-1 […] cell lines were obtained by single cell cloning. The mutation status of all cell lines was confirmed via sequencing. […] Luminescence was recorded on an Envision multimode reader. The cell signal at the start of incubation was recorded separately in order to distinguish between cell population growth and cell death. In addition, maximum growth was determined by incubation of a duplicate without compound in the presence of 0.3% DMSO. Percentage growth was used as the main y-axis signal.

[4] = tested on: wt-TMD8 diffuse large B-cell lymphoma cells; assay: Cell proliferation assay wt-TMD8 (ATPlite, 120 hours); assay type: cell-based; conditions: wt-TMD8 cells, 120 hours, ATPlite, read-out: IC50 wt-TMD8
Protocol: Cell proliferation assay wt-TMD8 diffuse large B-cell lymphoma cells were purchased from Tokyo Medical and Dental University and cultured in RPMI-1640 cell culture medium (cat. no. 61870036, Life Technologies), supplemented with 10% (v/v) heat-inactivated fetal bovine calf serum and 1% penicillin/[…]. 1600 cells per well (in 45 μl) were seeded in a white 384-well culture plate (cat. no. 781080, Greiner Bio-One) and allowed to rest for at least 5 hours at 37° C., 95% humidity, and 5% CO2. 5 μl compound solution was added to the cells and incubation was continued for 120 hours (5 days), followed by addition of 24 μl ATPlite 1Step™ (PerkinElmer, Groningen, The Netherlands) solution was added to each well. Luminescence was recorded on an Envision multimode reader. The cell signal at the start of incubation was recorded separately in order to distinguish between cell population growth and cell death. In addition, maximum growth was determined by incubation of a duplicate without compound in the presence of 0.3% DMSO. Percentage growth was used as the main y-axis signal.

Chain of full-length wt-BTK enzyme (Q06187 whole entry): as the sequence (Q06187 whole entry C481S) above, with S481C counted along it

Compound | IC50 [1] | IC50 ([2]; 72 hours) | IC50 [3] | IC50 (REC-1 T474I cell lines; Homo sapiens, Rec1) | IC50 ([4]; B-cell) | IC50 (REC-1 T474I cell lines) | IC50 [4] | IC50 ([2]; 72 h)
CC1NC/C=C/c2cnc(N)c3c(-c4ccc(C(=O)Nc5cc(C(F)(F)F)ccn5)cc4)nn(c23)CC[C@@H](C)NC1=O (single isomer, unassigned) [Example 143] | < 0.005 µM | 0.1 to 1 µM | < 0.005 µM | 0.5 to 10 µM | < 0.1 µM | – | – | –
CC1NC/C=C/c2cnc(N)c3c(-c4ccc(C(=O)Nc5cc(C(F)(F)F)ccn5)cc4)nn(c23)CC[C@@H](C)NC1=O (single isomer, unassigned) [Example 144] | 0.005 to 0.05 µM | 1 to 10 µM | 0.005 to 0.05 µM | – | – | 0.5 to 10 µM | < 0.1 µM | –
Nc1ncc2c3c1c(-c1ccc(C(=O)Nc4cc(C(F)(F)F)ccn4)cc1)nn3[C@@H]1CCC[C@H](C1)NC(=O)CCCNC/C=C/2 [Example 15] | < 0.005 µM | – | < 0.005 µM | – | < 0.1 µM | – | – | 0.1 to 1 µM
Nc1ncc2c3c1c(-c1ccc(C(=O)Nc4cc(C(F)(F)F)ccn4)cc1)nn3[C@@H]1CCC[C@H](C1)NC(=O)CCCCC/C=C/C2 [Example 101a] | 0.005 to 0.05 µM | – | 0.005 to 0.05 µM | 0.5 to 10 µM | – | – | – | 0.1 to 1 µM
Nc1ncc2c3c1c(-c1ccc(C(=O)Nc4ccccn4)cc1)nn3[C@@H]1CCC[C@H](C1)NC(=O)CCCCC/C=C/C2 [Example 102a] | < 0.005 µM | – | < 0.005 µM | < 0.1 µM | – | – | – | < 0.1 µM
Nc1ncc2c3c1c(-c1ccc(C(=O)Nc4cc(C(F)(F)F)ccn4)cc1)nn3[C@@H]1CCC[C@H](C1)NC(=O)CCCCCC/C=C/C2 [Example 103a] | < 0.005 µM | – | < 0.005 µM | 0.1 to 0.5 µM | – | – | – | 0.1 to 1 µM
Nc1ncc2c3c1c(-c1ccc(C(=O)Nc4ccccn4)cc1)nn3[C@@H]1CCC[C@H](C1)NC(=O)COC/C=C/C2 [Example 104a] | 0.05 to 0.5 µM | – | 0.05 to 0.5 µM | 0.5 to 10 µM | – | – | – | 1 to 10 µM
Nc1ncc2c3c1c(-c1ccc(C(=O)Nc4cc(C(F)(F)F)ccn4)cc1)nn3[C@@H]1CCC[C@H](C1)NC(=O)CCNC/C=C/C2 [Example 106] | 0.005 to 0.05 µM | – | 0.005 to 0.05 µM | 0.5 to 10 µM | – | – | – | 1 to 10 µM
Nc1ncc2c3c1c(-c1ccc(C(=O)Nc4cc(C(F)(F)F)ccn4)cc1)nn3[C@@H]1CCC[C@H](C1)NC(=O)CCCNC/C=C/C2 [Example 107] | 0.005 to 0.05 µM | – | 0.005 to 0.05 µM | 0.5 to 10 µM | – | – | – | 1 to 10 µM
Nc1ncc2c3c1c(-c1ccc(C(=O)Nc4cc(C(F)(F)F)ccn4)cc1)nn3[C@@H]1CCC[C@H](C1)NC(=O)CCCNC/C=C\C2 [Example 108] | < 0.005 µM | – | < 0.005 µM | 0.5 to 10 µM | – | – | – | 0.1 to 1 µM
C[C@@H]1CCn2nc(-c3ccc(C(=O)Nc4cc(C(F)(F)F)ccn4)cc3)c3c(N)ncc(c32)C/C=C\CCCC(=O)N1 [Example 109a] | 0.005 to 0.05 µM | – | 0.005 to 0.05 µM | 0.5 to 10 µM | – | – | – | 0.1 to 1 µM
C[C@@H]1CCn2nc(-c3ccc(C(=O)Nc4cc(C(F)(F)F)ccn4)cc3)c3c(N)ncc(c32)C/C=C/CCCC(=O)N1 [Example 109b] | 0.05 to 0.5 µM | – | 0.05 to 0.5 µM | 0.5 to 10 µM | – | – | – | 1 to 10 µM
C[C@@H]1CCn2nc(-c3ccc(C(=O)Nc4cc(C(F)(F)F)ccn4)cc3)c3c(N)ncc(c32)CC=CCCCCC(=O)N1 [Example 110] | 0.005 to 0.05 µM | – | 0.005 to 0.05 µM | 0.5 to 10 µM | – | – | – | 0.1 to 1 µM
C[C@@H]1CCn2nc(-c3ccc(C(=O)Nc4cc(C(F)(F)F)ccn4)cc3)c3c(N)ncc(c32)CC=CCCCCCC(=O)N1 [Example 111] | 0.005 to 0.05 µM | – | 0.005 to 0.05 µM | 0.5 to 10 µM | – | – | – | 1 to 10 µM
Nc1ncc2c3c1c(-c1ccc(C(=O)Nc4cc(C(F)(F)F)ccn4)cc1)nn3[C@@H]1CCC[C@H](C1)NC(=O)CCNCCCC2 [Example 112] | < 0.005 µM | – | < 0.005 µM | 0.1 to 0.5 µM | – | – | – | 0.1 to 1 µM
C[C@@H]1CCn2nc(-c3ccc(C(=O)Nc4cc(C(F)(F)F)ccn4)cc3)c3c(N)ncc(c32)CCCO[C@H](C)C(=O)N1 [Example 113] | 0.005 to 0.05 µM | – | 0.005 to 0.05 µM | 0.5 to 10 µM | – | – | – | 1 to 10 µM
Nc1ncc2c3c1c(-c1ccc(C(=O)Nc4cc(C(F)(F)F)ccn4)cc1)nn3[C@@H]1CCC[C@H](C1)C(=O)NCCCCC2 [Example 116] | 0.05 to 0.5 µM | – | 0.05 to 0.5 µM | 0.5 to 10 µM | – | – | – | 1 to 10 µM
Nc1ncc2c3c1c(-c1ccc(C(=O)Nc4cc(C(F)(F)F)ccn4)cc1)nn3[C@@H]1CCC[C@H](C1)C(=O)NCCCCCC2 [Example 117] | 0.005 to 0.05 µM | – | < 0.005 µM | 0.5 to 10 µM | – | – | – | 0.1 to 1 µM
Nc1ncc2c3c1c(-c1ccc(C(=O)Nc4cc(C(F)(F)F)ccn4)cc1)nn3[C@@H]1CCC[C@H](C1)C(=O)NCCCCCCCCC2 [Example 120] | 0.005 to 0.05 µM | – | 0.005 to 0.05 µM | 0.5 to 10 µM | – | – | – | 0.1 to 1 µM
C[C@@H]1CCn2nc(-c3ccc(C(=O)Nc4cc(C(F)(F)F)ccn4)cc3)c3c(N)ncc(c32)CCCCCCC(=O)N1 [Example 121] | 0.005 to 0.05 µM | – | < 0.005 µM | 0.5 to 10 µM | – | – | – | 0.1 to 1 µM
C[C@@H]1CCn2nc(-c3ccc(C(=O)Nc4cc(C(F)(F)F)ccn4)cc3)c3c(N)ncc(c32)CCCOCC(=O)N1 [Example 122] | 0.005 to 0.05 µM | – | 0.005 to 0.05 µM | 0.5 to 10 µM | – | – | – | 0.1 to 1 µM
Nc1ncc2c3c1c(-c1ccc(C(=O)Nc4ccccn4)cc1)nn3[C@@H]1CCC[C@H](C1)NC(=O)CCCCC2 [Example 124] | 0.05 to 0.5 µM | – | 0.05 to 0.5 µM | 0.5 to 10 µM | – | – | – | 0.1 to 1 µM
Nc1ncc2c3c1c(-c1ccc(C(=O)Nc4ccccn4)cc1)nn3[C@@H]1CCC[C@H](C1)NC(=O)CCCCCC2 [Example 125] | 0.005 to 0.05 µM | – | 0.005 to 0.05 µM | 0.5 to 10 µM | – | – | – | 0.1 to 1 µM
Nc1ncc2c3c1c(-c1ccc(C(=O)Nc4ccccn4)cc1)nn3[C@@H]1CCC[C@H](C1)NC(=O)CCCCCCC2 [Example 126] | < 0.005 µM | – | < 0.005 µM | 0.1 to 0.5 µM | – | – | – | < 0.1 µM
Nc1ncc2c3c1c(-c1ccc(C(=O)Nc4cc(C(F)(F)F)ccn4)cc1)nn3[C@@H]1CCC[C@H](C1)NC(=O)CNCCCC2 [Example 127] | < 0.005 µM | – | < 0.005 µM | 0.5 to 10 µM | – | – | – | 0.1 to 1 µM
Nc1ncc2n3c(nc(-c4ccc(C(=O)Nc5cc(C(F)(F)F)ccn5)cc4)c13)[C@@H]1CCC[C@H](C1)NC(=O)CCC/C=C/C2 [Example 133a] | 0.005 to 0.05 µM | – | 0.005 to 0.05 µM | 0.5 to 10 µM | – | – | – | 0.1 to 1 µM

Source: patent US20250074911A1, “MACROCYCLIC BTK INHIBITORS” (Crossfire Oncology Holding B.V., priority 2021, published 2025)
